Consider 18 compounds from patent publication US20250059194A1, “ULK1 AND ULK2 INHIBITORS” (Board of Trustees of Michigan State University, priority 2021, published 2025).

One data set concerns the target ULK1 (Homo sapiens (Human), UniProt O75385). The experiment in a line: ULK1 IC50. In kind it is biochemical.
The next data set relates to Cell. The experiment in a line: Cell EC50. In kind it is cell-based.
Another data set is described as follows: Kinetic Solubility. In kind it is physicochemical. To be noted: kinetic from dmso stock.
The next data set has as its target ULK2 (Homo sapiens (Human), UniProt Q8IYT8). The experiment in a line: ULK2 IC50. In kind it is biochemical.

A word on the IC50: it is the concentration that inhibits the measured activity by half. Higher therefore signals lower potency. As a reminder, the EC50 is the concentration that produces a half-maximal response. A lower EC50 goes with higher potency in that assay. For orientation: kinetic solubility means solubility judged after dilution from a stock solution rather than from solid.

Counter-ions that a name gives are not always drawn.

ULK2, sequence (Q8IYT8 whole entry): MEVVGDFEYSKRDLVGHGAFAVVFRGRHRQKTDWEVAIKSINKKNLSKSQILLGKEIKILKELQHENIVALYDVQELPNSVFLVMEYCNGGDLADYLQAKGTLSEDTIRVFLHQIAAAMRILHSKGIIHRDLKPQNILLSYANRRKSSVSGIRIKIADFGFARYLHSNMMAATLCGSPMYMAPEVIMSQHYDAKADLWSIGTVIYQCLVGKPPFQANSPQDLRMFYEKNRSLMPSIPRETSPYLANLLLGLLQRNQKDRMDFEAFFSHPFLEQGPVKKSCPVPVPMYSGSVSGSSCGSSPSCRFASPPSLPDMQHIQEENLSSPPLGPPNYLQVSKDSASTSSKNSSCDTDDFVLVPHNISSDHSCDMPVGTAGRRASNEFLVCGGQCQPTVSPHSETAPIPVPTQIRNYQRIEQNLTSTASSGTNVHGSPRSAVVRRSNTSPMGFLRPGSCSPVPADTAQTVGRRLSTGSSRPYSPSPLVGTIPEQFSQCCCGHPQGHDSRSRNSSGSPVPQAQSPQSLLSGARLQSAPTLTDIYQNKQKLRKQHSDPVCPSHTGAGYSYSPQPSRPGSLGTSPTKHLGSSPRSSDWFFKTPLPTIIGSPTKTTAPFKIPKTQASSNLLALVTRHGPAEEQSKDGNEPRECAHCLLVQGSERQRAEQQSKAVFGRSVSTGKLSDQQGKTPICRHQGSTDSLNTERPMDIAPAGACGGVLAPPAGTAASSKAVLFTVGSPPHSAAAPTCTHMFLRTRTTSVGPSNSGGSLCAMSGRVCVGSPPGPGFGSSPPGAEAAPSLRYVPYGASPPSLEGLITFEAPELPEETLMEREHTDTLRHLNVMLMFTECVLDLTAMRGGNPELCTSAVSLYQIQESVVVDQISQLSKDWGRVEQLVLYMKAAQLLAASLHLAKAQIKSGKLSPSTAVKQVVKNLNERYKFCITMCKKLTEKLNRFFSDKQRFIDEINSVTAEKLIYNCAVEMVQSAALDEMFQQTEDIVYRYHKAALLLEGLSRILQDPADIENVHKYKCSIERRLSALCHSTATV
ULK1, sequence (O75385 whole entry): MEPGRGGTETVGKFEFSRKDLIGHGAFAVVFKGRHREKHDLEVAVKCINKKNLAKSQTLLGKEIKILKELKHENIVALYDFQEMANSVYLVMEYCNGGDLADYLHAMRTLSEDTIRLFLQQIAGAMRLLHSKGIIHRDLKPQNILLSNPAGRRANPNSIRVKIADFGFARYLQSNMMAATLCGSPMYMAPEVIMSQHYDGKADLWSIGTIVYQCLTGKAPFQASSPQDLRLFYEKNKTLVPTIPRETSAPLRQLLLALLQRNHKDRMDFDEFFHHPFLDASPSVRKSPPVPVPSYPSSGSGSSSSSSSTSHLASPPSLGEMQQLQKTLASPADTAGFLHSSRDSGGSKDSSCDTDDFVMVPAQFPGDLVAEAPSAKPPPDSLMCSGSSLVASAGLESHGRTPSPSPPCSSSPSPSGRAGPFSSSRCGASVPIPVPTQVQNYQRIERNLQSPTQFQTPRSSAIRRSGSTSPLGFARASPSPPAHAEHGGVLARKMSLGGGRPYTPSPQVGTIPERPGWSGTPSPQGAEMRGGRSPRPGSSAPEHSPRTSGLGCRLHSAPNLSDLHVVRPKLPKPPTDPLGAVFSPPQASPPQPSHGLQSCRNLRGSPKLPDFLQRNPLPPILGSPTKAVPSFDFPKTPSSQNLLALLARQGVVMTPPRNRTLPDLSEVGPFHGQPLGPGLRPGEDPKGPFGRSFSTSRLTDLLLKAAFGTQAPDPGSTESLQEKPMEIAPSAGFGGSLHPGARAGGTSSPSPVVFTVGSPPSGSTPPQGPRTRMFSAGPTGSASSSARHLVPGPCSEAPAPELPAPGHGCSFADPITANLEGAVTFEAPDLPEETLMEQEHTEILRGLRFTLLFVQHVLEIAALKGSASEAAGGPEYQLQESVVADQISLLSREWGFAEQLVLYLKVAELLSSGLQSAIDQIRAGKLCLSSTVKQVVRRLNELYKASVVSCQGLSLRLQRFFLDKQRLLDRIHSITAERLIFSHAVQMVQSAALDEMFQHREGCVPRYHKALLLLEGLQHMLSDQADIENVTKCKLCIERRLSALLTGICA

On to `CCC(CC)NC(=O)c1cc(-c2cnn3cc(N4CCC(NC(=O)OC(C)(C)C)CC4)cnc23)cs1`, for which the IC50 on ULK1 fell in the range of 50 to 99 nM. Further, the EC50 with Cell is above 1000 nM.
With `O=C(N[C@@H](C1CC1)C(F)(F)F)c1cc(-c2cnn3cc(Nc4ccc(F)cc4)cnc23)cs1`, on ULK1, the IC50 fell in the range of 1 to 49 nM.
With `CCC(NC(=O)c1cc(-c2cnn3cc(Nc4ccccc4)cnc23)cs1)C1CC1` (stereo not drawn), the IC50 against ULK1 fell in the range of 1 to 49 nM.
Turning to `CC[C@H](NC(=O)c1cc(-c2cnn3cc(Nc4ccccc4)cnc23)cs1)C(F)(F)F`, on ULK1, the IC50 was 1 to 49 nM.
`O=C(N[C@@H](C1CC1)C(F)(F)F)c1cc(-c2cnn3cc(Nc4ccccc4)cnc23)cs1`: the IC50 against ULK1 was 1 to 49 nM.
`O=C(N[C@@H](C1CC1)C(F)(F)F)c1cc(-c2cnn3cc(N4CCNCC4)cnc23)cs1` came in with a half-inhibitory concentration (IC50) on ULK1 of 1 to 49 nM.
The compound `NC1CCN(c2cnc3c(-c4csc(C(=O)N[C@@H](C5CC5)C(F)(F)F)c4)cnn3c2)CC1` displayed an IC50 on ULK1 of 1 to 49 nM.
Same read-out and setting: the figure for `CCC(CC)NC(=O)c1cc(-c2cnn3cc(-n4ccccc4=O)cnc23)cs1` [4-[6-(2-oxo-1,2-dihydropyridin-1-yl)pyrazolo[1,5-a]pyrimidin-3-yl]-N-(pentan-3-yl)thiophene-2-carboxamide] is 500 to 1000 nM.
The compound `CCC(CC)NC(=O)c1cc(-c2cnn3cc(N4CCC(N)CC4)cnc23)cs1` [4-[6-(4-aminopiperidin-1-yl)pyrazolo[1,5-a]pyrimidin-3-yl]-N-(pentan-3-yl)thiophene-2-carboxamide hydrochloride] gave a solubility (kinetic) in the data set “Kinetic Solubility” of 203 µM. The figures for the IC50 against ULK1 and on ULK2 were 1 to 49 nM and 50 to 99 nM, respectively. For the same compound, the EC50 in the data set on Cell was in the range of 100 to 499 nM.
For `CCC(CC)NC(=O)c1cc(-c2cnn3cc(NC4CC4)cnc23)cs1` [4-[6-(cyclopropylamino)pyrazolo[1,5-a]pyrimidin-3-yl]-N-(pentan-3-yl)thiophene-2-carboxamide], the IC50 on ULK1 is 100 to 499 nM.
As for `CC(C)(CO)NC(=O)c1cc(-c2cnn3cc(N4CCNCC4)cnc23)cs1` [N-(1-hydroxy-2-methylpropan-2-yl)-4-[6-(piperazin-1-yl)pyrazolo[1,5-a]pyrimidin-3-yl]thiophene-2-carboxamide hydrochloride], the half-maximal inhibitory concentration (IC50) at ULK1 is 100 to 499 nM; on ULK2, 500 to 1000 nM.
Regarding `CCC(CC)NC(=O)c1cc(-c2cnn3cc(Nc4ccccc4)cnc23)cs1` [N-(pentan-3-yl)-4-[6-(phenylamino)pyrazolo[1,5-a]pyrimidin-3-yl]thiophene-2-carboxamide], the IC50 at ULK1 and against ULK2 was 1 to 49 nM throughout. Moreover, the half-maximal effective concentration (EC50) with Cell is 100 to 499 nM.
Compound `CCC(CC)NC(=O)c1cc(-c2cnn3cc(N4CCCC4)cnc23)cs1` [N-(pentan-3-yl)-4-[6-(pyrrolidin-1-yl)pyrazolo[1,5-a]pyrimidin-3-yl]thiophene-2-carboxamide] came in with an IC50 against ULK1 of 500 to 1000 nM.
`N[C@@H]1CCCC[C@@H]1NC(=O)c1cc(-c2cnn3cc(N4CCNCC4)cnc23)cs1` [N-[(1S,2R)-2-aminocyclohexyl]-4-[6-(piperazin-1-yl)pyrazolo[1,5-a]pyrimidin-3-yl]thiophene-2-carboxamide dihyrochloride] registered a kinetic solubility in “Kinetic Solubility” above 300 µM. Further, the 50% inhibitory concentration (IC50) against ULK1 and against ULK2 was 1 to 49 nM throughout. Moreover, the concentration for a half-maximal effect (EC50) with Cell fell in the range of 1 to 49 nM.
In the data set “Kinetic Solubility”, `CCC(CC)NC(=O)c1cc(-c2cnn3cc(N4CCNCC4)cnc23)cs1` [hydrochloride] came in with a kinetic solubility above 300 µM. Also, the IC50 against ULK1 fell in the range of 50 to 99 nM. Also, in the data set with Cell, the concentration for a half-maximal effect (EC50) is 500 to 1000 nM.
For the compound `CC(C)(CO)NC(=O)c1cc(-c2cnn3cc(N4CCN(C(=O)OC(C)(C)C)CC4)cnc23)cs1` [tert-butyl 4-(3-{5-[(1-hydroxy-2-methylpropan-2-yl)carbamoyl]thiophen-3-yl}pyrazolo[1,5-a]pyrimidin-6-yl) piperazine-1-carboxylate], the IC50 at ULK1 was in the range of 1 to 49 nM; on ULK2 it was 100 to 499 nM.
For `CCC(CC)NC(=O)c1cc(-c2cnn3cc(N4CCN(C(=O)OC(C)(C)C)CC4)cnc23)cs1` [tert-butyl 4-(3-{5-[(pentan-3-yl)carbamoyl]thiophen-3-yl}pyrazolo[1,5-a]pyrimidin-6-yl) piperazine-1-carboxylate], the IC50 at ULK1 fell in the range of 1 to 49 nM. Further, the EC50 with Cell is above 1000 nM.
In the case of `CC(C)(C)OC(=O)N[C@@H]1CCCC[C@@H]1NC(=O)c1cc(-c2cnn3cc(N4CCN(C(=O)OC(C)(C)C)CC4)cnc23)cs1` [tert-butyl 4-[3-(5-{[(1S,2R)-2-{[(tert-butoxy)carbonyl]amino}cyclohexyl]carbamoyl}thiophen-3-yl)pyrazolo[1,5-a]pyrimidin-6-yl]piperazine-1-carboxylate], the 50% inhibitory concentration (IC50) at ULK1 was in the range of 100 to 499 nM; against ULK2 it was 500 to 1000 nM.
